Each structure is given as a SMILES string. Where “and” joins values, the source holds several entries; their conditions need not be identical. Identical values can stand only once. Toxic doses and inconclusive results are not listed.

The record followed here is PubChem BioAssay AID330 (DTP/NCI, 2004).

For this assay, the system named is P388 leukemia ip, CD2F1 mice, survival T/C. Nature of the assay: NCI In Vivo Anticancer Drug Screen. Data for tumor model P388 Leukemia (intraperitoneal) in CD2F1 (CDF1) mice. To be noted: endpoint: median survival time, higher = longer survival. In short, it runs like this:
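Mice carrying the transplanted tumor received test compound or vehicle. Survival was recorded in each group, and the value is the treated-group measurement divided by that of the vehicle-treated control group.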

Where [1] appears, read: dose: 50.0 mg/kg/injection, schedule: Q01DX005 (ip), vehicle: Klucel (hydroxypropylcellulose) (HPC).
The mark [2] stands for this setting: dose: 100.0 mg/kg/injection, schedule: Q01DX005 (ip), vehicle: Klucel (hydroxypropylcellulose) (HPC).
Where [3] appears, read: dose: 200.0 mg/kg/injection, schedule: Q01DX005 (ip), vehicle: Klucel (hydroxypropylcellulose) (HPC).
Setting [4] is: dose: 60.0 mg/kg/injection, schedule: Q01DX005 (ip), vehicle: saline with Tween-80.
Where [5] appears, read: dose: 120.0 mg/kg/injection, schedule: Q01DX005 (ip), vehicle: saline with Tween-80.
[6] abbreviates: dose: 240.0 mg/kg/injection, schedule: Q01DX005 (ip), vehicle: saline with Tween-80.
Setting [7] is: dose: 50.0 mg/kg/injection, schedule: Q01DX009 (ip), vehicle: saline.
[8] abbreviates: dose: 100.0 mg/kg/injection, schedule: Q01DX009 (ip), vehicle: saline.

In the case of `CCCCCCCCCCCCCCCC[N+](C)(C)CCOS(C)(=O)=O`, the T/C is 110 % of control (dose: 12.5 mg/kg/injection, schedule: Q01DX009 (ip), vehicle: saline with Tween-80) and 116 % of control (dose: 25.0 mg/kg/injection, schedule: Q01DX009 (ip), vehicle: saline with Tween-80).

For the compound `COc1cc(C(=O)c2cc3c(cc2C=O)OCO3)cc(OC)c1OC`, the T/C by setting is: under setting [1], 95 % of control; under setting [2], 90 % of control; under setting [3], 99 % of control.

Take `C=C1C(=O)C23C(OC(=O)c4ccc(Br)cc4)C1CCC2C12COC3(O)C(O)C1C(C)(C)CCC2O` (centres undefined): the T/C (dose: 3.75 mg/kg/injection, schedule: Q01DX009 (ip), vehicle: saline with Tween-80) was 105 % of control and 106 % of control; the T/C (dose: 7.5 mg/kg/injection, schedule: Q01DX009 (ip), vehicle: saline with Tween-80) was 105 % of control and 111 % of control; the T/C (dose: 15.0 mg/kg/injection, schedule: Q01DX009 (ip), vehicle: saline with Tween-80) is 111 % of control and 120 % of control; the T/C (dose: 30.0 mg/kg/injection, schedule: Q01DX009 (ip), vehicle: saline with Tween-80) is 119 % of control.

On to `c1ccc2c3c([nH]c2c1)CCN1CCN(CCc2ccncc2)CC31` (centres undefined), for which the T/C runs as follows: (dose: 100.0 mg/kg/injection, schedule: Q04DX002 (ip), vehicle: Klucel (hydroxypropylcellulose) (HPC)) 100 % of control; (dose: 200.0 mg/kg/injection, schedule: Q04DX002 (ip), vehicle: Klucel (hydroxypropylcellulose) (HPC)) 101 % of control; (dose: 400.0 mg/kg/injection, schedule: Q04DX002 (ip), vehicle: Klucel (hydroxypropylcellulose) (HPC)) 96 % of control.

On to `CNC=O`, for which the T/C by setting is: (dose: 80.0 mg/kg/injection, schedule: Q01DX005 (ip), vehicle: water) 108 % of control; (dose: 160.0 mg/kg/injection, schedule: Q01DX005 (ip), vehicle: water) 115 % of control; (dose: 197.6 mg/kg/injection, schedule: Q01DX005 (ip), vehicle: saline) 116 % of control; (dose: 197.6 mg/kg/injection, schedule: Q01DX005 (iv), vehicle: saline) 120 % of control; (dose: 296.3 mg/kg/injection, schedule: Q01DX005 (ip), vehicle: water) 107 % of control; (dose: 296.5 mg/kg/injection, schedule: Q01DX001 (ip), vehicle: saline) 101 % of control. In addition, the T/C is 100 % of control (dose: 296.5 mg/kg/injection, schedule: Q01DX001 (iv), vehicle: saline); 118 % of control (dose: 320.0 mg/kg/injection, schedule: Q01DX005 (ip), vehicle: water); 122 % of control (dose: 444.4 mg/kg/injection, schedule: Q01DX005 (ip), vehicle: water); 104 % of control (dose: 444.5 mg/kg/injection, schedule: Q01DX001 (ip), vehicle: saline); 103 % of control (dose: 444.5 mg/kg/injection, schedule: Q01DX001 (iv), vehicle: saline); 103 % of control (dose: 444.5 mg/kg/injection, schedule: Q01DX001 (oral), vehicle: saline). Besides, the T/C was 98 % of control (dose: 444.5 mg/kg/injection, schedule: Q01DX009 (ip), vehicle: saline); 173 % of control (dose: 444.5 mg/kg/injection, schedule: Q01DX009 (oral), vehicle: saline); 107 % of control (dose: 666.7 mg/kg/injection, schedule: Q01DX001 (ip), vehicle: saline); 111 % of control (dose: 666.7 mg/kg/injection, schedule: Q01DX001 (iv), vehicle: saline); 114 % of control (dose: 666.7 mg/kg/injection, schedule: Q01DX001 (oral), vehicle: saline); 156 % of control (dose: 666.7 mg/kg/injection, schedule: Q01DX005 (ip), vehicle: saline). Also, the T/C is 166 % of control (dose: 666.7 mg/kg/injection, schedule: Q01DX005 (ip), vehicle: water); 93 % of control (dose: 666.7 mg/kg/injection, schedule: Q01DX009 (ip), vehicle: saline); 98 % of control (dose: 666.7 mg/kg/injection, schedule: Q01DX009 (oral), vehicle: saline); 116 % of control (dose: 1000.0 mg/kg/injection, schedule: Q01DX001 (ip), vehicle: saline); 119 % of control (dose: 1000.0 mg/kg/injection, schedule: Q01DX001 (iv), vehicle: saline); 116 % of control (dose: 1000.0 mg/kg/injection, schedule: Q01DX001 (oral), vehicle: saline). Further, the T/C (dose: 1000.0 mg/kg/injection, schedule: Q01DX005 (iv), vehicle: saline) is 86 % of control; the T/C (dose: 1000.0 mg/kg/injection, schedule: Q01DX005 (oral), vehicle: saline) was 95 % of control; the T/C (dose: 1000.0 mg/kg/injection, schedule: Q01DX009 (oral), vehicle: saline) is 98 % of control; the T/C (dose: 1280.0 mg/kg/injection, schedule: Q01DX005 (ip), vehicle: water) is 161 % of control; the T/C (dose: 1500.0 mg/kg/injection, schedule: Q01DX001 (ip), vehicle: saline) is 120 % of control; the T/C (dose: 1500.0 mg/kg/injection, schedule: Q01DX005 (oral), vehicle: saline) was 86 % of control.

For the compound `CC(=O)Nc1cc2cccnc2sc1=O`, the T/C is 98 % of control (dose: 25.0 mg/kg/injection, schedule: Q01DX005 (ip), vehicle: Klucel (hydroxypropylcellulose) (HPC)); 91 % of control under setting [1]; 89 % of control and 94 % of control under setting [2]; 96 % of control under setting [3].

As for `O=C1NC2(CN3CCC2CC3)C(=O)N1CN(Cc1ccccc1)c1ccccc1` (centres undefined), the T/C is, setting by setting: under setting [4], 99 % of control; under setting [5], 99 % of control; under setting [6], 99 % of control.

As to `CN(C)S(=O)(=O)Nc1ccccn1`, the T/C is 106 % of control (dose: 50.0 mg/kg/injection, schedule: Q01DX009 (ip), vehicle: saline with Tween-80); 92 % of control (dose: 100.0 mg/kg/injection, schedule: Q01DX009 (ip), vehicle: saline with Tween-80); 86 % of control (dose: 200.0 mg/kg/injection, schedule: Q01DX009 (ip), vehicle: saline with Tween-80).

Consider `COC(=O)N1C(=O)CO[C@@H]1C(C)(C)C`, for which the T/C is, setting by setting: under setting [4], 103 % of control; under setting [5], 99 % of control; under setting [6], 104 % of control.

For the compound `C=C=C(C)C(C(C)C)N1CCCC1` (centres undefined), the T/C by setting is: (dose: 50.0 mg/kg/injection, schedule: Q01DX005 (ip), vehicle: saline) 113 % of control; (dose: 100.0 mg/kg/injection, schedule: Q01DX005 (ip), vehicle: saline) 104 % of control.

Take `N#CC(Br)CNC(=O)Oc1ccccc1` (centres undefined): the T/C reads like this: under setting [1], 104 % of control; under setting [2], 106 % of control; under setting [3], 105 % of control.

`CCN(CC)C(=O)c1cc(=O)c(C)c2oc3c(C)c(O)c(N)c(C(=O)N(CC)CC)c3nc1-2`: the T/C (dose: 60.0 mg/kg/injection, schedule: Q01DX005 (ip), vehicle: Klucel (hydroxypropylcellulose) (HPC)) was 92 % of control; the T/C (dose: 120.0 mg/kg/injection, schedule: Q01DX005 (ip), vehicle: Klucel (hydroxypropylcellulose) (HPC)) is 87 % of control; the T/C (dose: 240.0 mg/kg/injection, schedule: Q01DX005 (ip), vehicle: Klucel (hydroxypropylcellulose) (HPC)) is 86 % of control.

As to `O=C(O)c1c(Cl)c(Cl)c(Cl)c(Cl)c1-c1c2cc(I)c(=O)c(I)c-2oc2c(I)c(O)c(I)cc12`, the T/C is, setting by setting: (dose: 12.5 mg/kg/injection, schedule: Q01DX009 (ip), vehicle: saline) 103 % of control; (dose: 25.0 mg/kg/injection, schedule: Q01DX009 (ip), vehicle: saline) 88 % of control; (dose: 50.0 mg/kg/injection, schedule: Q01DX005 (ip), vehicle: saline with Tween-80) 92 % of control; under setting [7], 88 % of control and 91 % of control; (dose: 100.0 mg/kg/injection, schedule: Q01DX005 (ip), vehicle: saline with Tween-80) 86 % of control; under setting [8], 97 % of control.

With `CC(C)CC(=O)N(CCC#N)c1ncc([N+](=O)[O-])s1`, the T/C is 110 % of control (dose: 100.0 mg/kg/injection, schedule: Q01DX001 (ip), vehicle: Klucel (hydroxypropylcellulose) (HPC)) and 98 % of control (dose: 200.0 mg/kg/injection, schedule: Q01DX001 (ip), vehicle: Klucel (hydroxypropylcellulose) (HPC)).

In the case of `NC(=O)c1ncn(C2OC(COP(=O)(O)O)C(O)C2O)n1` (centres undefined), the T/C is 104 % of control and 106 % of control under setting [7]; 107 % of control and 109 % of control under setting [8]; 113 % of control and 120 % of control (dose: 200.0 mg/kg/injection, schedule: Q01DX009 (ip), vehicle: saline).
